Results as given in US6342492B1, “Anti-viral triaza compounds and compositions” (The Research Foundation of State University of New York, priority 1995, dated 2002).
Counter-ions that a name gives are not always drawn. Like-named read-outs stand apart in the source and are kept apart here.

How the values were obtained:
[1] = system: rous sarcoma virus; assay: Antiviral testing against rous sarcoma virus (Example 5); type: cell-based; conditions: RSV, concentration causing 50% protection against virus, PDR = poor dose response
[2] = system: Human Cytomegalovirus; assay: Semi-automated CPE-inhibition assay for HCMV in human foreskin fibroblast cells; type: cell-based
Method: (§1) Additional antiviral testing was carried out to test the efficacy of compounds of the invention against human cytomegalovirus (HCMV) and another herpesvirus, Variecella Zoster Virus(VZV). The compounds tested were compound (1), the HCl salt of compound (1), Compounds 211, 43, 213 and 214.

[3] = system: Varicella Zaster Virus (VZV); assay: Ocular Varicella Zaster Virus infection in rabbits, intravenous therapy; type: in vivo, rabbit
[4] = system: human foreskin fibroblast cells; assay: Inhibition of cell proliferation (cytotoxicity) in herpesvirus screening; type: cell-based
[5] = system: HIV strain 2h, a primary pediatric clinical isolate; assay: Protein (p24) assay in PBMC cells with 2h; type: cell-based; conditions: read-out: ED50 2h/PBMC
[6] = system: herpes simplex virus (HSV); assay: Antiviral testing against herpes simplex virus (Example 5); type: cell-based; conditions: concentration causing 50% protection against virus, PDR = poor dose response
[7] = system: HIV strain MB48; assay: Reverse transcriptase (RT) assay in MT-2 cells, HIV strain MB48; type: cell-based
[8] = system: human cytomegalovirus (HCMV); assay: Antiviral testing against human cytomegalovirus (Example 5); type: cell-based; conditions: concentration causing 50% protection against virus, PDR = poor dose response
[9] = system: influenza virus (FLU WSN); assay: Antiviral testing against influenza virus (Example 5); type: cell-based; conditions: FLU WSH, concentration causing 50% protection against virus
[10] = system: HIV strain MD48; assay: MAGI assay on HeLa-MAGIC cells (plaque inhibition); type: cell-based; conditions: read-out: ED50 MD48/HeLa
[11] = system: Varicella Zoster Virus; assay: Plaque reduction assay for VZV (Ellen strain); type: cell-based
Method: as §1

[12] = Solubility in human plasma; type: physicochemical; conditions: plasma or biological fluid, human plasma at 37° C.
Method: (§2) Additional studies on stability, solubility, formulation and pharmokinetics were carried out. Plasma elimination and urinary recovery from mice following i.v. administeration were examined. Solubility of the compound in human, mouse, rat plasma and plasma ultrafiltrate were examined. Stability of the compound in human urine was determined.

[13] = system: cell fusion; assay: Cell fusion (mechanism of action studies); type: cell-based, HIV; conditions: preliminary mechanism of action studies
[14] = system: HIV-1; assay: Anti-HIV soluble formazan (XTT tetrazolium) assay in CEM-IW cells; type: cell-based
Method: (§3) In these tests, the IC50 (50% inhibitory concentration) is the concentration resulting in 50% cellular toxicity. EC50 (median effective concentration) is the compound concentration that reduces infection by 50%. The effectiveness of a compound against a virus is expressed as TI50 (median therapeutic index) which is determined by the ratio IC50/EC50.
(§4) Compounds of the invention were tested to assess the efficacy of the inhibitory effect of the compounds against HIV. The screen was carried out in a soluble formazan assay by the tetrazolium method according to Weislow et al., J. Natl. Cancer Inst. 81:577-586, 1989.
(§5) The compound was dissolved in dimethyl sulfoxide (DMSO) (final conc. less than 0.25%) and then diluted 1:100 in cell culture medium. Because DMSO is toxic to cells at concentration above 1%, the concentration of the compound in DMSO should be at least 10 uM before dilution with aqueous solution. Various concentrations of the compound were tested against HIV-1 in CEM-IW cells. After six days incubation at 37° C. in a 5% carbon dioxide atmosphere, viable cells were analyzed through addition of tetrazolium salt XTT followed by incubation to allow formazan color development. Cell viability was viewed microscopically and detected spectrophotometrically to quantitate formazan production.

[15] = Inhibition of cell proliferation (cytotoxicity) in herpesvirus screening; type: cell-based, human; conditions: human, human foreskin fibroblast cells, inhibit cell proliferation by 50%
[16] = system: virus attachment; assay: Attachment (p 24 based); type: cell-based, HIV
[17] = system: U1/TNF latent infection; assay: Latent infection (U1/TNF); type: cell-based
[18] = system: HIV-1 Ba-L; assay: Mo-MO/HIV-1 Ba-L infection; type: cell-based; conditions: Human immunodeficiency virus 1, BAL; fresh
[19] = system: Mo-MO; assay: Cytotoxicity in Mo-MO/HIV-1 Ba-L infection assay; type: cell-based; conditions: high test
[20] = system: MT-4, CEM, MT-2 cell lines, PBMCs; assay: Cell toxicity in testing against additional strains (Example 2); type: cell-based; conditions: Homo sapiens, MT2
Method: as §3
(§6) Testing was carried out as described in Example 1 against additional HIV strains. The compound CADA was active against the following viruses using the indicated cell lines:
(§7) IIIB strain of HIV-1/MT-4 cell line
(§8) AZT—resistant HIV-1/MT-2 and MT-4 cell lines
(§9) AZT—sensitive HIV-1/MT-4 cell line
A17, a strain of HIV-1 resistant to most of the non-nucleoside reverse transcriptase inhibitors/MT-2 and MT-4 cell lines,
WeJo, a clinical isolate of HIV-1/PBMCs (fresh human peripheral blood mononuclear cells).

[21] = in vitro; type: in vitro ADME; conditions: rat, plasma
[22] = Plasma elimination in mice after i.v. administration; type: in vivo; conditions: mouse plasma, intravenous administration
Method: as §2

[23] = system: peripheral blood lymphocytes; assay: Cytotoxicity in PBL/HIV-1 Wejo infection assay; type: cell-based
Source text: (§10) The studies were based on activity of the compound against HIV-1 in peripheral blood lymphocytes. The results with different solutions and different batches of the compound confirm that the compound is active at submicromolar levels (EC50) and has low cytotoxicity (IC50).

[24] = system: HIV-1 (IIIB, AZT-resistant, AZT-sensitive, A17, WeJo), HIV-2, SIV; assay: Anti-HIV testing against additional strains (Example 2); type: cell-based; conditions: viruses and cell lines listed in Example 2
Method: as §4, §5, §6, §7, §8, §9
A17, a strain of HIV-1 resistant to most of the non-nucleoside reverse transcriptase inhibitors/MT-2 and MT-4 cell lines, […]

[25] = in vitro; type: in vitro ADME; conditions: plasma
Method: as §2

[26] = system: HIV-1 Wejo; assay: PBL/HIV-1 Wejo infection; type: cell-based
Source text: as §10

[27] = target: T1, HIV reverse transcriptase (Human immunodeficiency virus type 1 group M subtype B, UniProt P04585); assay: RT activity (rA.dT); type: biochemical
T1 construct: HIV reverse transcriptase

[28] = Stability in pH 4.0 buffer; type: physicochemical
Method: as §2

[29] = target: T2, HIV protease (Human immunodeficiency virus type 1 group M subtype B, UniProt P04585); assay: Protease activity (rp HPLC); type: biochemical; conditions: read-out: Protease Activity (rp HPLC) ID50
T2 construct: HIV protease

[30] = Formulation for animal studies in DMSO/normal saline; type: physicochemical; conditions: 1:20 mixture of DMSO and normal saline (pH 2.7)
Method: as §2

[31] = system: Human Cytomegalovirus; assay: Plaque reduction assay for HCMV; type: cell-based; conditions: read-out: Human Cytomegalovirus EC50 (values in parentheses)
[32] = inhibit cell proliferation by 50%, HCMV CPE-inhibition screen, read-out: Human Cytomegalovirus CC50
[33] = inhibit cell proliferation by 50%, VZV screen, read-out: Varicella Zoster Virus CC50
[34] = Protein (p24) assay in PBMC cells
[35] = Reverse transcriptase (RT) assay in MT-2 cells, read-out: ED50 MB48/MT-2
[36] = MAGI assay on HeLa-MAGIC cells (plaque inhibition)
[37] = HCMV CPE-inhibition screen, read-out: Human Cytomegalovirus CC50
[38] = VZV screen, read-out: Varicella Zoster Virus CC50
[39] = Human immunodeficiency virus 1, 2 h, Protein (p24) assay in PBMC cells
[40] = Human immunodeficiency virus 1, MT2, Reverse transcriptase (RT) assay in MT-2 cells, read-out: ED50 MB48/MT-2
[41] = Human immunodeficiency virus 1, MAGI assay on HeLa-MAGIC cells (plaque inhibition)

`C=C1CN(S(=O)(=O)c2ccccc2)CCCN(Cc2ccccc2)CCCN(S(=O)(=O)c2ccccc2)C1` (as salt: HCl) [Compound 211, 9-Benzyl-3-methylene-1,5-dibenzenesulfonyl-1,5,9-triazacyclododecane] showed a melting point of 135 to 136 °C.
In the case of `O=S(=O)(NCCCN(CCCNS(=O)(=O)c1ccccc1)Cc1ccccc1)c1ccccc1` (as salt: hydrochloride) [Compound 210, N-Benzylbis(3-benzenesulfonamidopropyl)amine], the melting point is reported as 135 to 136 °C.
In the case of `C=C1CN(S(=O)(=O)c2ccc(C)cc2)CCCN(Cc2ccccc2)CCCN(S(=O)(=O)c2ccc(C)cc2)C1.Cl` [1 · HCl], the IC50 [1] is reported as “PDR”, the EC50 [2] is reported as over 160 µM and the “development of iritis and resolution of VZV disease, comparison of therapies” value ([3]; By day 5 PI) is reported as “more effective than acyclovir therapy”. The “iris disease (uveitis) development” value ([3]; rabbits, intravenous therapy) was “positive therapeutic response”, the “VZV-induced corneal stromal disease development” value ([3]; rabbits, intravenous, CADA-HCl 5 and 10 mg/kg/day, ACV 20 mg/kg/day) was “effective in reducing the development of stromal disease” and the CC50 [4, 32] was over 160 µM. The CC50 [4, 33] was over 160 µM, the EC50 [5, 34] was 150 nM and the IC50 [6] was “PDR”. The EC50 [7, 35] was 200 nM, the IC50 ([8]; HCMV) was “PDR” and the IC50 [9] was over 50 µg/mL. It also gave an EC50 [10, 36] of 100 nM and an EC50 [11] of 3.4 µM.
With `C=C1CN(S(=O)(=O)c2ccc(C)cc2)CCCN(Cc2ccccc2)CCCN(S(=O)(=O)c2ccc(C)cc2)C1` [Compound 1, 9-Benzyl-3-methylene-1,5-ditosyl-1,5,9-triazacyclododecane] the solubility [12] was 1 to 2 µg/mL, the solubility ([12]; conversion of ug/mL) was 2 to 3 µM and the IC50 ([1]; read-out: IC50) was over 30 µg/mL. For the same compound, the “inhibition of cell fusion” value [13] was “does not appear to inhibit”, the EC50 ([2]; Human betaherpesvirus 5) was over 34 µM and the EC50 ([14]; Human immunodeficiency virus 1, HIV-1(6S)-AZT sensitive, CEM-IW cells, first test) was 1200 nM. The EC50 ([14]; Human immunodeficiency virus 1, second test, another batch, primary screen) was 2400 nM, the CC50 [15, 37] was 133 µM and the CC50 [15, 38] was 89 µM. The EC50 ([5]; Human immunodeficiency virus 1, PBMC, 2 h) was 150 nM, the Attachment [16] was “No Inhibition” and the “Latent Infection” value [17] was “No inhibition”. The EC50 ([7]; Human immunodeficiency virus 1, MT2, read-out: ED50 MB48/MT-2) was 800 nM, the IC50 ([8]; HCMV, listed as CADA (1)) was over 50 µg/mL and the IC50 ([8]; Human betaherpesvirus 5, HCMV, read-out: IC50) was over 30 µg/mL. It also gave an EC50 [18] of 1500 nM, an IC50 [19] of over 30 µM and an IC50 ([9]; listed as CADA (1)) of over 50 µg/mL. The IC50 ([9]; unidentified influenza virus, WSN) was over 30 µg/mL, the IC50 [20] was over 30 µM and the half-life [21] was over 8.33 days. The “time detectable in plasma” value [22] was “up to 2 hours”, the IC50 ([23]; Batch 1, B) was over 100 µM and the IC50 ([23]; Batch 2) was over 100 µM. The IC50 ([23]; Lymphocyte, Batch 1, A) was over 100 µM, the EC50 [24] was 2000 nM and the half-life ([25]; human) was 5.25 days. It also gave a half-life ([25]; mouse) of over 8.33 days, an EC50 ([10]; Human immunodeficiency virus 1, MAGI) of 500 nM and an EC50 ([26]; Human immunodeficiency virus 1, Batch 1, A) of 550 nM. For the same compound, the EC50 ([26]; Human immunodeficiency virus 1, Batch 1, B) was 160 nM, the EC50 ([26]; Human immunodeficiency virus 1, Batch 2) was 650 nM and the “RT activity (rA.dT) ID50” value [27] was “No Inhibition”. The half-life [28] was 5.79 days, the IC50 [29] was 40 µM and the “concentration at which the compound can be formulated” value [30] was 1.2 µM. The EC50 ([11]; Human alphaherpesvirus 3) was 5.3 µM.
In the case of `C=CCN(CCCN(CCCN(CC=C)S(=O)(=O)c1ccc(C)cc1)Cc1ccccc1)S(=O)(=O)c1ccc(C)cc1` [Compound 004, N-Benzylbis[3-(N′-2-propenyltoluenesulfonamido)propyl]amine dihydrogen sulfate], the EC50 [5, 34] is reported as 500 nM, the EC50 [7, 35] is reported as 2600 nM and the EC50 [10, 36] is reported as 3500 nM.
Compound `C=C1CN(S(=O)(=O)c2ccc(C)cc2)CCC[N+]([O-])(Cc2ccccc2)CCCN(S(=O)(=O)c2ccc(C)cc2)C1` [Compound 43, 9-Benzyl-3-methylene-1,5-ditosyl-1,5,9-triazacyclododecane-9-oxide] has an EC50 ([2]; Human betaherpesvirus 5) of over 170 µM, a CC50 [15, 37] of over 170 µM and a CC50 [15, 38] of over 170 µM. For the same compound, the EC50 [5, 39] was 500 nM, the EC50 [7, 40] was 1800 nM and the EC50 [10, 41] was 3500 nM. For the same compound, the EC50 ([11]; Human alphaherpesvirus 3) was 24.3 µM.
With `C=C1CN(S(=O)(=O)c2ccccc2)CCCN(Cc2ccccc2)CCCN(S(=O)(=O)c2ccccc2)C1` [Compound 211, 9-Benzyl-3-methylene-1,5-dibenzenesulfonyl-1,5,9-triazacyclododecane] the EC50 ([2]; Human betaherpesvirus 5) was over 170 µM, the CC50 [15, 37] was over 170 µM and the CC50 [15, 38] was over 170 µM. The EC50 [5, 39] was 500 nM, the EC50 [7, 40] was 1900 nM and the EC50 [10, 41] was 1500 nM. The EC50 ([11]; Human alphaherpesvirus 3) was 91.7 µM.
Work on “N-Benzyl-N-[3-(N-2-methyl-2-propenyl-toluenesulfonamido)propyl]-N-(3-toluenesulfonamidopropyl)amine dihydrogen sulfate [Compound 214]” yielded an EC50 [2] of 2.2 µM, a CC50 [4, 32] of over 150 µM and a CC50 [4, 33] of 68.5 µM. For the same compound, the CC50 ([4]; with HCMV plaque reduction assay, read-out: Human Cytomegalovirus CC50 (values in parentheses)) was 147 µM, the EC50 [31] was 20.5 µM and the EC50 [11] was 25.2 µM.
